Values after ≈ are worked out from the molar mass of the structure shown. Values joined by “and” are separate entries in the source; they are usually repeats but may differ in a detail not shown here. Identical values can stand only once.
What was measured:
5-lipoxygenase (5-LOX) = target: T1, 5-lipoxygenase (5-LOX) (Homo sapiens, UniProt P09917); conditions: read-out: IC50 (5-LOX inhibition); cited from earlier work
T1 sequence (P09917 1-674): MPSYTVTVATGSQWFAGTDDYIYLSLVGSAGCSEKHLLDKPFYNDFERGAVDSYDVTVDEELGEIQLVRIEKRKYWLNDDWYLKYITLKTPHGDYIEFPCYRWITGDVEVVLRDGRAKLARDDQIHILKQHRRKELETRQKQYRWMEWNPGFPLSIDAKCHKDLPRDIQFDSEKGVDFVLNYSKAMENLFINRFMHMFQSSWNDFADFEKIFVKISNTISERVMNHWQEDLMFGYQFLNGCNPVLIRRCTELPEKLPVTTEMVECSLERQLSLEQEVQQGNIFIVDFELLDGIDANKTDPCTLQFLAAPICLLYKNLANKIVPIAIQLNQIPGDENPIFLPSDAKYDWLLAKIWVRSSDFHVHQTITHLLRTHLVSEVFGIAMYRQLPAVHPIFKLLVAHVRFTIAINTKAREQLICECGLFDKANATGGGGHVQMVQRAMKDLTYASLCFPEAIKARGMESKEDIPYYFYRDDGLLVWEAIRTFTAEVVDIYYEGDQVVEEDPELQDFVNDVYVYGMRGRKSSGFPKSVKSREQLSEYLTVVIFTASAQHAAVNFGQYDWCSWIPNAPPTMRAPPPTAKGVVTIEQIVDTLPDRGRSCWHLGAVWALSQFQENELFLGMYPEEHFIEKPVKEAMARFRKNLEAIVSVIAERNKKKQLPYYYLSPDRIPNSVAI

Acetylcholinesterase = Acetylcholinesterase (Homo sapiens, UniProt P22303); assay: Acetylcholinesterase inhibitory activity, in vitro enzymatic assay (Ellman method); format: biochemical; conditions: Table 3
Sequence of Acetylcholinesterase (P22303 32-614, species assumed): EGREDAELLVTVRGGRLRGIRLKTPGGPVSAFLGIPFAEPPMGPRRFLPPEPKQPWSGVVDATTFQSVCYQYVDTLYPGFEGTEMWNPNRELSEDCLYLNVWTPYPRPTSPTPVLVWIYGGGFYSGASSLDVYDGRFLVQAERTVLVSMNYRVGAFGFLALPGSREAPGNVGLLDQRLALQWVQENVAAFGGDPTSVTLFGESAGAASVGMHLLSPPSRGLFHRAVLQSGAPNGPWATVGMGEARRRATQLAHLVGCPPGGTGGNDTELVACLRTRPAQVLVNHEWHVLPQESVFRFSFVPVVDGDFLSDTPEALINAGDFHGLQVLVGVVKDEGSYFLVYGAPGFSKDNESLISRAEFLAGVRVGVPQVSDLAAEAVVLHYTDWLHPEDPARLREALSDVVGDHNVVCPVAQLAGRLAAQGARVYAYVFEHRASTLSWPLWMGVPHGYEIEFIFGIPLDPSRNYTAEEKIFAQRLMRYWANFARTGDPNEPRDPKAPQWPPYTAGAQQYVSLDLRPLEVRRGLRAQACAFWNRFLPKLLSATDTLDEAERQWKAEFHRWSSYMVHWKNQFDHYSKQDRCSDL
Procedure: (§1) As a part of developing new agents for improving brain/mental function and alleviating disease conditions related to cognition and memory deficits, a large number of plant extracts have been screened for their inhibitory property on Acetylcholinesterase enzyme activity. The assay was performed in vitro by the method of Ellman et al., with minor modifications, using acetylthiocholine iodide as a substrate (Lee J. H., et. al. Arch Pharm Res 2004, 27(1): 53-56). […] Its acetylcholinesterase inhibitory activity was also evaluated by a cell based in vitro assay in Rat pheochromocytoma PC 12 cells. […] Rat pheochromocytoma PC 12 cells were equally distributed with phenol red free Dulbecco's modified Eagle's red medium (DMEM) (Sigma Life Science, USA) containing 10% fetal bovine serum (FBS) in 24-well plate. […] Thereafter, cells were induced with 1 μg/mL of β-amyloid peptide (Calbiochem, USA) for 24 h at 37° C. After 24 h, cells were collected and washed twice with 1×PBS by centrifugation at 1200 rpm for 5 min at 4° C. The cell extracts were prepared in solubilization buffer and the cell lysates were analyzed for acetylcholine esterase (AChE) activity.
Acetylcholinesterase activity is measured using the substrate acetylthiocholine iodide, which is converted to thiocholine. The reaction of thiocholine with the chromogenic substrate Dithionitrobenzoic acid (DTNB) leads to the formation of a yellow anion, Nitrobenzoic acid, which absorbs strongly at 412 nm. Incubation was done for 10 min.
The AChE assay was performed by the method of Ellman et al, with minor modifications, using acetylthiocholine iodide as a substrate (Lee J. H., et. al. Arch Pharm Res 2004, 27(1): 53-56). Ellmans reaction mixture contains 0.5 mM acetylthiocholine iodide and 1 mM 5,5′-dithio-bis-(2-nitrobenzoic acid) in a 50 mM sodium phosphate buffer (pH 8.0). […] For blanks, enzyme was replaced with phosphate buffer. The reaction mixture was mixed thoroughly, 100 μl of Ellman's reagent was added and incubated at room temperature for 10 min. The absorbance was measured at 412 nm using microplate reader. The percentage inhibition of enzyme activity was calculated by comparing OD's of tests wells with that of control wells using the following formula. Calculations: % inhibition=[(control−sample)/control]×100.

[1] = target: T2, acetylcholine esterase (AChE) (Rattus norvegicus, UniProt P37136); assay: Acetylcholine esterase inhibitory activity in β-amyloid peptide induced PC 12 cells; format: cell-based; conditions: PC 12 cells
T2 construct: The cell extracts were used as samples for measuring the acetylcholine esterase (AChE) activity; endogenous in cells; host or cells: rat pheochromocytoma PC 12 cells, induced with β-amyloid peptide
T2 sequence (P37136 32-614): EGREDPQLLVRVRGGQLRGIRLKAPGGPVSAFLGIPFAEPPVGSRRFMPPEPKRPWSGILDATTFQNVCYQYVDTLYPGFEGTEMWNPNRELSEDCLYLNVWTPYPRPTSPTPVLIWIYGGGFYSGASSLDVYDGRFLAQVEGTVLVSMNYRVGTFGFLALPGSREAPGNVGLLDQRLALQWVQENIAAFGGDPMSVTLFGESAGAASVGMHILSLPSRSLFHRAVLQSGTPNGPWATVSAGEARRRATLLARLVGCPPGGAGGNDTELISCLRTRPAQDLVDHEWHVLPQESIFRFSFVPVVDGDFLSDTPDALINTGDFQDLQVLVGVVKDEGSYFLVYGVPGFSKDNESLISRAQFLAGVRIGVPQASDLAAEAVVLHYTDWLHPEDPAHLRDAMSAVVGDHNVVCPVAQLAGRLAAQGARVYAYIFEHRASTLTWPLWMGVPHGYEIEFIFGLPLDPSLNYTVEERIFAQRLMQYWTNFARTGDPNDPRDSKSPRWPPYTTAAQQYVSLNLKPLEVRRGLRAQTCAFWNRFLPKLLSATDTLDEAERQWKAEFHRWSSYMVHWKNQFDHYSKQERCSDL
Procedure: as §1
The inhibitory property on the enzyme activity was assessed in β-amyloid peptide induced-rat pheochromocytoma PC 12 cells. Rat pheochromocytoma PC 12 cells were equally distributed with phenol red free Dulbecco's modified Eagle's red medium (DMEM) (Sigma Life Science, USA) containing 10% fetal bovine serum (FBS) in 24-well plate. […] Thereafter, cells were induced with 1 μg/mL of β-amyloid peptide (Calbiochem, USA) for 24 h at 37° C. After 24 h, cells were collected and washed twice with 1×PBS by centrifugation at 1200 rpm for 5 min at 4° C. Cell extracts were prepared in solubilization buffer (10 mM Tris, pH 7.2; 100 mM NaCl, 50 mM MgCl2, 1% Triton X-100). The cell extracts were used as samples for measuring the acetylcholine esterase (AChE) activity.
Cell extract samples (100 μl) were dispensed into each well of 96-well microtitre plate. Fifty micro liters of DTNB (Dithiobisnitro benzoate) solution was added to each well and incubated for 5 min at room temperature. After incubation, 50 μl of acetyl choline iodide solution was added to each well and absorbance was read immediately at 405 nm for 12 min at 2 min intervals. A standard curve was constructed by using serial concentrations of acetyl cholinesterase (0-100 mU). Total protein present in 100 μl aliquot of cell extract was calculated by Bradford method and the enzyme activity was normalized and expressed as unit activity per milligram of protein.

[2] = Comparative bioavailability of LI01008 (bisdemethylcurcumin) and its composition (serum, HPLC); conditions: oral, LI13124F1 450 mg/kg, LI01008 300 mg/kg
Sprague Dawley rats = assay: Spatial learning and memory improvement, elevated radial arm maze (RAM); format: in vivo, rat; conditions: positive control 150 mg/kg, vs control group
From the text: The animal study protocol was approved by institutional animal ethics committee. Sprague Dawley rats were acclimatized for one week and healthy rats were selected for the study. The selected rats were pre-trained in elevated radial arm maze (RAM) adapted rats were allocated to various treatment groups each containing eight rats. After completion of pre-training, the oral treatment was initiated to the animals and continued daily up to two weeks. During this treatment phase the rats were placed on the RAM for 10 min each to recognize the food pellets present in the three different colored arms. During training the spatial learning was estimated by measuring various parameters like number of days required to learn the task, latency in finding food and number of wrong entries/attempts. After this treatment and training the animals were given rest without treatment or training for one week (3rd week). On 4th week, the animals were treated with allocated doses of test products and memory retention test was assessed using the same animals by measuring latency and number of wrong entries. The data was analyzed using ANOVA followed by a suitable post-hoc test.

Compound	% Inhibition at concentrations of 25 ng (Acetylcholinesterase)	% Inhibition at concentrations of 50 ng (Acetylcholinesterase)	% Inhibition at concentrations of 100 ng (Acetylcholinesterase)	IC50 (Acetylcholinesterase)	% inhibition in AChE activity ([1]; 100 ng/ml, Table 5)	also measured
3-O-acetyl-11-keto-β-boswellic acid	9.64%	16.07%	27.5%	>100 ng/mL	41.67%	IC50 (5-lipoxygenase (5-LOX)): 1500 nM
CC(=O)O[C@@H]1CC[C@@]2(C)[C@@H](CC[C@]3(C)[C@@H]2CC=C2[C@@H]4CC(C)(C)CC[C@]4(C)CC[C@]23C)[C@@]1(C)C(=O)O [3-O-acetyl-α-boswellic acid]	14.86%	21.28%	33.11%	>100 ng/mL	29.22%	–
CC(=O)O[C@@H]1CC[C@@]2(C)[C@@H](CC[C@]3(C)[C@@H]2CC=C2[C@@H]4[C@@H](C)[C@H](C)CC[C@]4(C)CC[C@]23C)[C@@]1(C)C(=O)O [3-O-acetyl-β-boswellic acid]	36.29%	40.32%	52.02%	91.77 ng/mL (≈ 0.184 µM)	37.34%	–
C[C@H]1[C@H](C)CC[C@]2(C)CC[C@]3(C)C(=CC(=O)[C@@H]4[C@@]5(C)CC[C@@H](O)[C@](C)(C(=O)O)[C@@H]5CC[C@]43C)[C@H]12 [11-keto-β-boswellic acid]	11.82%	16.36%	24.55%	>100 ng/mL	31.39%	–
O=C(/C=C/c1ccc(O)c(O)c1)CC(=O)/C=C/c1ccc(O)c(O)c1 [LI 01008, bisdemethylcurcumin]	–	–	–	–	–	Serum concentration of bisdemethylcurcumin ([2]; time after admn. 0, suspension in 0.5% CMC): 0; Serum concentration of bisdemethylcurcumin ([2]; time after admn. 0.5 (hours)): 0.07; Serum concentration of bisdemethylcurcumin ([2]; time after admn. 1 (hours)): 0.1085; Serum concentration of bisdemethylcurcumin ([2]; time after admn. 2 (hours)): 0.078; Serum concentration of bisdemethylcurcumin ([2]; time after admn. 4 (hours)): 0.035; Serum concentration of bisdemethylcurcumin ([2]; time after admn. 6 (hours)): 0.00535; Serum concentration of bisdemethylcurcumin ([2]; time after admn. 8 (hours)): 0; Serum concentration of bisdemethylcurcumin ([2]; time after admn. 12 (hours)): 0
CN(C)C(=O)Oc1cccc([N+](C)(C)C)c1 [Neostigmin]	–	–	–	–	–	% inhibition in AChE activity ([1]; 20 ng/ml, Table 4): 49.1% and 49.09%; % inhibition in AChE activity ([1]; 20 ng/ml, Table 5): 54.65%
NC(=O)CN1CCCC1=O [Piracetam]	–	–	–	–	–	spatial learning (reduction in latency and Number of wrong entries) (Sprague Dawley rats): significant improvement
CC1(C)CC[C@]2(C)CC[C@]3(C)C(=CC[C@@H]4[C@@]5(C)CC[C@@H](O)[C@](C)(C(=O)O)[C@@H]5CC[C@]43C)[C@@H]2C1 [α-boswellic acid]	13.85%	21.92%	39.23%	>100 ng/mL	38.42%	–
C[C@H]1[C@H](C)CC[C@]2(C)CC[C@]3(C)C(=CC[C@@H]4[C@@]5(C)CC[C@@H](O)[C@](C)(C(=O)O)[C@@H]5CC[C@]43C)[C@H]12 [β-boswellic acid]	16.75%	21.23%	31.37%	>100 ng/mL	46.54%	–

— patent publication US9795646B2, “Boswellia oil, its fractions and compositions for enhancing brain function” (LAILA NUTRACEUTICALS, priority 2010, dated 2017)
